In ChEMBL document CHEMBL1132091, “Synthesis and biological activity of substituted bis-(4-hydroxyphenyl)methanes as N-type calcium channel blockers” (Bioorg Med Chem Lett, 1999):

Assays:
[1] = Blockade of Na+ channels in SCG neurons at 10 uM; type: functional; conditions: Rattus norvegicus
[2] = Blockade of K+ channels in SCG neurons at 10 uM; type: functional; conditions: Rattus norvegicus
[3] = biological target: Voltage-gated L-type calcium channel (Rattus norvegicus, UniProt P22002+Q02485+P27732); assay: Inhibition of L-type calcium channels in GH-3 rat pituitary cells; type: functional, cell-based; conditions: pituitary gland cell
[4] = biological target: T1, Voltage-dependent N-type calcium channel subunit alpha-1B (Homo sapiens, UniProt Q00975); assay: Inhibition of N-type calcium channels in IMR-32 human neuroblastoma cells; type: functional, cell-based
Target sequence in this assay (Q00975 whole entry): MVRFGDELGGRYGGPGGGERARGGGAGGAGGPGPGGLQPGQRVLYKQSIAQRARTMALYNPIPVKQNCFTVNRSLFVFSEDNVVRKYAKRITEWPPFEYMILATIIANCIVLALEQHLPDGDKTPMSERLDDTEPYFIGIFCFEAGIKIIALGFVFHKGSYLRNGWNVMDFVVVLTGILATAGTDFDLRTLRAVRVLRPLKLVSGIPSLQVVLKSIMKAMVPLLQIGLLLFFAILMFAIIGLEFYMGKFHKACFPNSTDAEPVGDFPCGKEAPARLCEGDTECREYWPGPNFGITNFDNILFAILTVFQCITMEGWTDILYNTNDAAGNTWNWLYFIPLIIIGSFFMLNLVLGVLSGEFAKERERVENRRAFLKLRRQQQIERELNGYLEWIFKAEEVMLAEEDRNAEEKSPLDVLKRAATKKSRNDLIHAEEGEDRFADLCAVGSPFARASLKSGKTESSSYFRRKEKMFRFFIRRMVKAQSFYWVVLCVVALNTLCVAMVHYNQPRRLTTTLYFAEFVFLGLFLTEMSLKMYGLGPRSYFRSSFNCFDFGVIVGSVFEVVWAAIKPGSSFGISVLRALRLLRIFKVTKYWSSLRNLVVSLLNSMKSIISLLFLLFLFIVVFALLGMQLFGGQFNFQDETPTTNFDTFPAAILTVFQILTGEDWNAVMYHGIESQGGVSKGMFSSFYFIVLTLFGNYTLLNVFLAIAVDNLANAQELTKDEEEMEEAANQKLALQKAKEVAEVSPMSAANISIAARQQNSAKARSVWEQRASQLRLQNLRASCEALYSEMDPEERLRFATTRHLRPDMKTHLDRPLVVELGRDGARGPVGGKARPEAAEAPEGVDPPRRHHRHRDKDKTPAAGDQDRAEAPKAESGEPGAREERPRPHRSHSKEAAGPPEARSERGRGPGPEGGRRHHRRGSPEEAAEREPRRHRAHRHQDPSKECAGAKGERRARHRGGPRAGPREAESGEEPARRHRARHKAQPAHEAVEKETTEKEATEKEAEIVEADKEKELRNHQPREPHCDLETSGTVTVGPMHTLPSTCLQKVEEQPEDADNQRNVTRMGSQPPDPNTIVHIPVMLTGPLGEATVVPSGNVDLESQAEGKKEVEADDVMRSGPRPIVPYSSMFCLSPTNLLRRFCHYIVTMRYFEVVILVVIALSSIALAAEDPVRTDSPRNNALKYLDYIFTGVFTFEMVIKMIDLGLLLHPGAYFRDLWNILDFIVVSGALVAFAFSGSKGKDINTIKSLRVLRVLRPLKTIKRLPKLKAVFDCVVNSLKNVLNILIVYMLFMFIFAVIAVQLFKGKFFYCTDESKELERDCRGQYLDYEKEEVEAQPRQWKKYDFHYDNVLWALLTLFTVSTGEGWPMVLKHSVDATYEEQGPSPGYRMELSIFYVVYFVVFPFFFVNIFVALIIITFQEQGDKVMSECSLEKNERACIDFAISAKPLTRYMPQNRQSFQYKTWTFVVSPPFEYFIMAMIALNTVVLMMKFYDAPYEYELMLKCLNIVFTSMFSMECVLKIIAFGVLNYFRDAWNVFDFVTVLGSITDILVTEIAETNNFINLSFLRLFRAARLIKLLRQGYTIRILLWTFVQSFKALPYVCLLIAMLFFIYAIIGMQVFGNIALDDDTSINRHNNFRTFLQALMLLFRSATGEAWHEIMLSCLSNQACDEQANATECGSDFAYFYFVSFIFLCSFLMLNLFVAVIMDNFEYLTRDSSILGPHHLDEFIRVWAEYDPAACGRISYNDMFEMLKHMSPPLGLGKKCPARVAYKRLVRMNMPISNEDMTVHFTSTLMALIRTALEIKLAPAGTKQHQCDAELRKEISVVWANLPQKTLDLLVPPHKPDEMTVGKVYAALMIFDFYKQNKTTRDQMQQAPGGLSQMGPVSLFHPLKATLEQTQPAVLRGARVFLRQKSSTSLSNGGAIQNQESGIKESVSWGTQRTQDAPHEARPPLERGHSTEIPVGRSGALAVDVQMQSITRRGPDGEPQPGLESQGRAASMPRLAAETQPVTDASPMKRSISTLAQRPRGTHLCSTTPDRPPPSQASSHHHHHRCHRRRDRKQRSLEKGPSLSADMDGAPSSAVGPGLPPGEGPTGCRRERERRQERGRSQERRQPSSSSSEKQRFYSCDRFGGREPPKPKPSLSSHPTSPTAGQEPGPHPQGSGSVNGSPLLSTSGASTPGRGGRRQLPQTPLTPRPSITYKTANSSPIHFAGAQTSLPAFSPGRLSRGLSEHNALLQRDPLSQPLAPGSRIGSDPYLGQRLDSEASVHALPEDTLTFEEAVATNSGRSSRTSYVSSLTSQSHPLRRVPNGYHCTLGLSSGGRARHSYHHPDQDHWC

[5] = biological target: T1, Voltage-dependent N-type calcium channel subunit alpha-1B; assay: Inhibition of N-type calcium channel in IMR-32 human neuroblastoma cell; type: functional
Target sequence in this assay (Q00975 whole entry): as above

[6] = biological target: T1, Voltage-dependent N-type calcium channel subunit alpha-1B; assay: Inhibition of N-type calcium channels in IMR-32 human neuroblastoma cells at 10 uM; type: functional, cell-based
Target sequence in this assay (Q00975 whole entry, looked up): as the sequence (Q00975 whole entry) above

SMILES | inhibition at 10 µM [1] [%] | inhibition at 10 µM [2] [%] | IC50 [3] [µM] | IC50 [4] [µM] | IC50 [5] [nM] | inhibition [6] [%]
CC(CCC(O)(c1ccccc1)c1ccccc1)(c1ccc(O)c(CN2CCCCCC2)c1)c1ccc(O)c(CN2CCCCCC2)c1 | 78 | 61 | 0.9 | – | – | –
Oc1c(/C=N\C2CCCCC2)ccc2cnccc12 | – | – | – | 35 | – | –
CC(CCC(O)(c1ccccc1)c1ccccc1)(c1ccc(O)cc1)c1ccc(O)c(CN2CCCCCC2)c1 (configuration not stated) | – | – | – | – | 1800 | –
CC(CCC(c1ccccc1)c1ccccc1)(c1ccc(O)c(CN2CCCCCC2)c1)c1ccc(O)c(CN2CCCCCC2)c1 | 5 | 18 | 9.1 | – | – | –
CC(C)(c1ccc(O)c(CN2CCCCCC2)c1)c1ccc(O)c(CN2CCCCCC2)c1 | 81 | 77 | 2 | – | 970 | –
CC(CCC(=O)N(Cc1ccccc1)Cc1ccccc1)(c1ccc(O)cc1)c1ccc(O)cc1 | – | – | – | – | – | -6
O=C(NCC(c1ccc(O)c(CN2CCCCCC2)c1)c1ccc(O)c(CN2CCCCCC2)c1)C(c1ccccc1)c1ccccc1 | – | – | – | – | 1800 | –
CC(CCCN(Cc1ccccc1)Cc1ccccc1)(c1ccc(O)c(CN2CCCCCC2)c1)c1ccc(O)c(CN2CCCCCC2)c1 | 24 | 28 | 4.1 | – | – | –
